Source: patent US9399647B2, “Proteasome activity modulating compounds” (Proteostasis Therapeutics, Inc., priority 2012, dated 2016)
Where two headings read alike, the source gives them in different places.

Target: USP14 (Homo sapiens, UniProt P54578)
Experiment: USP14 inhibition assay
Type: biochemical
From the text: The IC50 values in the Table below represent the average value from three experimental determinations.
These IC50 values represent the average value from three experimental determinations.

[1] = average value from three experimental determinations, read-out: USP14 IC50
[2] = average value from three experimental determinations, reported as potency bands, read-out: IC50 (USP14 inhibition)

USP14, sequence (P54578 whole entry): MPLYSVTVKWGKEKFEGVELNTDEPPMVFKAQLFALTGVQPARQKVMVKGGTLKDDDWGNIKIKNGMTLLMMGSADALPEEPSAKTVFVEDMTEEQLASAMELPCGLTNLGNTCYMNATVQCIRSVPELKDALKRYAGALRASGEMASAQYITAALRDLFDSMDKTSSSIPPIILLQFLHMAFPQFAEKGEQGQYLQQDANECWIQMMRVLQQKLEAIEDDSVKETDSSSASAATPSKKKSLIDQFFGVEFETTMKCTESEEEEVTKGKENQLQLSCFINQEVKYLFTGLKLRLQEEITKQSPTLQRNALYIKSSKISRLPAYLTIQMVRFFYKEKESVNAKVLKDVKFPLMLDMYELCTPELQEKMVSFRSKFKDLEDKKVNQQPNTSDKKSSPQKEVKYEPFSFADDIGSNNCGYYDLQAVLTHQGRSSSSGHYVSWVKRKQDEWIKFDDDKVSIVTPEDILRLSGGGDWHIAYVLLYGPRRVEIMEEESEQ
USP14, sequence (Q13200 whole entry partner): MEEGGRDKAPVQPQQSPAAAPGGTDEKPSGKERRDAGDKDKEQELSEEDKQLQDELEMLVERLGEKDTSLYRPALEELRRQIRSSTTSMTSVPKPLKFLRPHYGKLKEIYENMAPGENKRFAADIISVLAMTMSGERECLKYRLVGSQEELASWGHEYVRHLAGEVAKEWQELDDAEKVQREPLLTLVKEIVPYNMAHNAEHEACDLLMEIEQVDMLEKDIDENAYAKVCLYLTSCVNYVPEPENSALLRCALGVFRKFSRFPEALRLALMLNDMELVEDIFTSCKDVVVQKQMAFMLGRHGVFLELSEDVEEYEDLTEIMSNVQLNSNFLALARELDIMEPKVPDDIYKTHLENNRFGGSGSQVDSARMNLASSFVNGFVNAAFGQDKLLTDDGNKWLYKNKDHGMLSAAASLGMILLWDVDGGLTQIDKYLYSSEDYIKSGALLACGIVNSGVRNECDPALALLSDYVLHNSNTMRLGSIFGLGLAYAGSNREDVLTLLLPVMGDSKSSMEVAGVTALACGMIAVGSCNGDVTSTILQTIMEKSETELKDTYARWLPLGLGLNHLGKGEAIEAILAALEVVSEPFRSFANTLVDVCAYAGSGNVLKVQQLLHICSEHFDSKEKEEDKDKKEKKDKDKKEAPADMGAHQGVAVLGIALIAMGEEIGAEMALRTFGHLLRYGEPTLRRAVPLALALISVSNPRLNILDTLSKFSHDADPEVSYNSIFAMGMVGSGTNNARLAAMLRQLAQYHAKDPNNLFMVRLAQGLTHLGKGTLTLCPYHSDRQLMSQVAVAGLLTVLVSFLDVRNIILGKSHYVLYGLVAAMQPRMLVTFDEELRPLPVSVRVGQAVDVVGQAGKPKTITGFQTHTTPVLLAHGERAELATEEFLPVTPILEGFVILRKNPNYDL
USP14, sequence (P35998 whole entry partner): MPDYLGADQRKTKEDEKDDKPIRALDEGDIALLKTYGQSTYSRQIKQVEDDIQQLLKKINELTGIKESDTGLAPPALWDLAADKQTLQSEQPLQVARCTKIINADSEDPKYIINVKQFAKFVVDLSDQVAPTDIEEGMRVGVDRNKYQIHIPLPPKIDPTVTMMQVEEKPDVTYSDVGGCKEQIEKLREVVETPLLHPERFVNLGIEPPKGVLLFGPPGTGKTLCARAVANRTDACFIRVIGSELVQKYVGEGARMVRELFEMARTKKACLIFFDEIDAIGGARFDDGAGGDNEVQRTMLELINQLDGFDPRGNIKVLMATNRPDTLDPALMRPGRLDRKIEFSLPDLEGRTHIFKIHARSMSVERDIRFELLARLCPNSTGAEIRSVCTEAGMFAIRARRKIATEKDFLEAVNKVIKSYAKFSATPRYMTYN

| SMILES | IC50 [2] [nM] | other results |
| --- | --- | --- |
| CNC(=O)Cc1nc(N(C)C2CC2)c2c3c(sc2n1)CCCC3 [Compound 1, 2-(4-(Cyclopropyl(methyl)amino)-5,6,7,8-tetrahydrobenzo[4,5]thieno[2,3-d]pyrimidin-2-yl)-N-methylacetamide] |  | IC50 [1]: 1100 nM |
| CN(c1nc(CC(=O)O)nc2sc3c(c12)CCCC3)C1CC1 [Compound 2, 2-(4-(Cyclopropyl(methyl)amino)-5,6,7,8-tetrahydrobenzo[4,5]thieno[2,3-d]pyrimidin-2-yl)acetic acid] |  | IC50 [1]: 1600 nM |
| CN(C)C(=O)Cc1nc(N(C)C2CC2)c2c3c(sc2n1)CCCC3 [Compound 3, 2-(4-(Cyclopropyl(methyl)amino)-5,6,7,8-tetrahydrobenzo[4,5]thieno[2,3-d]pyrimidin-2-yl)-N,N-dimethylacetamide] |  | IC50 [1]: 500 nM |
| COCc1nc(N(C)C2CC2)c2c3c(sc2n1)CCCC3 [Compound 4, Cyclopropyl-(2-methoxymethyl-5,6,7,8-tetrahydro-benzo[4,5]thieno[2,3-d]pyrimidin-4-yl)-methyl-amine] |  | IC50 [1]: 7500 nM |
| CN(c1nc(CC(N)=O)nc2sc3c(c12)CCCC3)C1CC1 [Compound 5, 2-(4-(Cyclopropyl(methyl)amino)-5,6,7,8-tetrahydrobenzo[4,5]thieno[2,3-d]pyrimidin-2-yl)acetamide] | < 1000 |  |
| CN(c1nc(CC(=O)N2CCCC2)nc2sc3c(c12)CCCC3)C1CC1 [Compound 6, 2-[4-(Cyclopropyl-methyl-amino)-5,6,7,8-tetrahydro-benzo[4,5]thieno[2,3-d]pyrimidin-2-yl]-1-pyrrolidin-1-yl-ethanone] | < 1000 |  |
| CN(c1nc(CC(=O)N2CCC(F)(F)C2)nc2sc3c(c12)CCCC3)C1CC1 [Compound 7, 2-[4-(Cyclopropyl-methyl-amino)-5,6,7,8-tetrahydro-benzo[4,5]thieno[2,3-d]pyrimidin-2-yl]-1-(3,3-difluoro-pyrrolidin-1-yl)-ethanone] | 1000 to 5000 |  |
| CN(C)C1CCN(C(=O)Cc2nc(N(C)C3CC3)c3c4c(sc3n2)CCCC4)C1 (centres unmarked) [Compound 8, 2-[4-(Cyclopropyl-methyl-amino)-5,6,7,8-tetrahydro-benzo[4,5]thieno[2,3-d]pyrimidin-2-yl]-1-(3-dimethylamino-pyrrolidin-1-yl)-ethanone] | < 1000 |  |
| CN(c1nc(CC(=O)N2CCOCC2)nc2sc3c(c12)CCCC3)C1CC1 [Compound 9, 2-[4-(Cyclopropyl-methyl-amino)-5,6,7,8-tetrahydro-benzo[4,5]thieno[2,3-d]pyrimidin-2-yl]-1-morpholin-4-yl-ethanone] | < 1000 |  |
| CN1CCN(C(=O)Cc2nc(N(C)C3CC3)c3c4c(sc3n2)CCCC4)CC1 [Compound 10, 2-[4-(Cyclopropyl-methyl-amino)-5,6,7,8-tetrahydro-benzo[4,5]thieno[2,3-d]pyrimidin-2-yl]-1-(4-methyl-piperazin-1-yl)-ethanone] | < 1000 |  |
| CN(c1nc(CC(=O)N2CCC(F)(F)CC2)nc2sc3c(c12)CCCC3)C1CC1 [Compound 11, 2-[4-(Cyclopropyl-methyl-amino)-5,6,7,8-tetrahydro-benzo[4,5]thieno[2,3-d]pyrimidin-2-yl]-1-(4,4-difluoro-piperidin-1-yl)-ethanone] | 1000 to 5000 |  |
| CN(c1nc(CC(=O)N2CC(O)C2)nc2sc3c(c12)CCCC3)C1CC1 [Compound 12, 2-(4-(Cyclopropyl(methyl)amino)-5,6,7,8-tetrahydrobenzo[4,5]thieno[2,3-d]pyrimidin-2-yl)-1-(3-hydroxyazetidin-1-yl)ethanone] | < 1000 |  |
| CC(=O)N1CCN(C(=O)Cc2nc(N(C)C3CC3)c3c4c(sc3n2)CCCC4)CC1 [Compound 13, 1-(4-Acetyl-piperazin-1-yl)-2-[4-(Cyclopropyl-methyl-amino)-5,6,7,8-tetrahydro-[1]benzothieno[2,3-d]pyrimidin-2-yl]-ethanone] | < 1000 |  |
| CN(c1nc(CC(=O)N2CCC(=O)CC2)nc2sc3c(c12)CCCC3)C1CC1 [Compound 14, 1-{2-[4-(Cyclopropyl-methyl-amino)-5,6,7,8-tetrahydro-benzo[4,5]thieno[2,3-d]pyrimidin-2-yl]-acetyl}-piperidin-4-one] |  | IC50: < 1000 nM |
